Data from patent publication US10233180B2, “Substituted nitrogen-containing heterocyclic derivatives, pharmaceutical compositions comprising the same and applications of antitumor thereof” (ZHEJIANG UNIVERSITY, priority 2014, dated 2019).

How the values were obtained:
[1] = tested on: human colon cancer cell strain HCT-116; test: MTT assay, inhibition of tumor cell growth in vitro, 72 h; format: cell-based; conditions: Homo sapiens, HCT-116, MTT, read-out: Antitumor proliferative activities of tumor cell (IC50, μM) HCT-116 (converted)
Procedure, shortened: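 Cells in RPMI 1640 with FBS, 4000 cells/well, exposed 72 h at 37 °C, 5% CO2 to final 50, 10, 2, 0.4 and 0.08 μM; 1% DMSO blank. MTT OD gives % inhibition versus control; IC50 derived by Bliss method.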

Akt1 = target: T1, Akt1 (Homo sapiens, UniProt P31749); test: AKT1/PKBα KinEASE FP Fluorescein Green Assay (fluorescence polarization kinase kit); format: biochemical; conditions: 1 h reaction, read-out: Inhibitory activities against Akt1 (IC50)
T1 construct: purchased 32-021
Procedure, shortened: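 FP competition kinase assay: compounds (50 μM stock) with STK Substrate 3 and ATP, 1 h reaction at room temperature; stopped with stop/antibody mix, 4 h at room temperature, then polarization read. Inhibition derived from polarization values; IC50 calculated; triplicate wells.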

[2] = tested on: Human ovarian cancer cell strain OVCAR-8; test: MTT assay, inhibition of tumor cell growth in vitro, 72 h; format: cell-based; conditions: Homo sapiens, OVCAR-8, MTT, read-out: Antitumor proliferative activities of tumor cell (IC50, μM) OVCAR-8
Procedure, shortened: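 OVCAR8 cells in RPMI 1640 plus FBS were seeded at 4000 cells/well and exposed for 72 h at 37 °C to compound at 50, 10, 2, 0.4 and 0.08 μM final, with 1% DMSO as blank. Inhibition was calculated from OD relative to control, and IC50 was derived by the Bliss method.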

T1 sequence (P31749 whole entry): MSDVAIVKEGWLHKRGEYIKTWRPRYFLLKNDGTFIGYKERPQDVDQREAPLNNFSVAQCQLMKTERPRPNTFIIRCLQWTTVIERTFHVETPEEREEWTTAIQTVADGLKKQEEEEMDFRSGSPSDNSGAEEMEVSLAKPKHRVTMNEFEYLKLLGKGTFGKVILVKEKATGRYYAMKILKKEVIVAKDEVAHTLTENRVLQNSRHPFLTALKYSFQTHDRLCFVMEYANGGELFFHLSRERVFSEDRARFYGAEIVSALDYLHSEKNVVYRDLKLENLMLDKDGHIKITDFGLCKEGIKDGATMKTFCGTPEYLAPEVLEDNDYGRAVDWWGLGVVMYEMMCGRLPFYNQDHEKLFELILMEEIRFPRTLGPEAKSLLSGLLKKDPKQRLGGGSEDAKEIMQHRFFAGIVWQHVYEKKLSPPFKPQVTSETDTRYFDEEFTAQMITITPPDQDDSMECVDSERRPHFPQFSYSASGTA

SMILES	IC50 [1] [µM]	IC50 (Akt1) [nM]	IC50 [2] [µM]
Cn1ncc(Br)c1-c1csc(C(=O)N[C@@H]2CNCC[C@H]2c2ccc(F)c(F)c2)c1 [Compound 42, 4-(4-bromo-1-methyl-1H-pyrazol-5-yl)-N-((3S,4S)-4-(3,4-difluorophenyl)piperidin-3-yl)thiophene-2-formamide]	8.11	92	9.71
Cn1ncc(Cl)c1-c1cc(C(=O)N[C@H]2CNCC[C@@H]2c2ccc(C(F)(F)F)cc2)oc1Cl [Compound 43, 5-chloro-4-(4-chloro-1-methyl-1H-pyrazol-5-yl)-N-((3R,4R)-4-(4-trifluoromethylphenyl)piperidin-3-yl)furan-2-formamide]	13.8	342	3.58
Cn1ncc(Cl)c1-c1cc(C(=O)N[C@@H]2CNCC[C@H]2c2ccc(C(F)(F)F)cc2)oc1Cl [Compound 44, 5-chloro-4-(4-chloro-1-methyl-1H-pyrazol-5-yl)-N-((3S,4S)-4-(4-trifluoromethylphenyl)piperidin-3-yl)furan-2-formamide]	18.3	672	1.88
CC(C)c1cnn(C)c1-c1nc(C(=O)N[C@H]2CNCC[C@@H]2C2CCC(F)C2)ncc1Cl (stereo partly drawn) [Compound 51, 5-chloro-4-(4-isopropyl-1-methyl-1H-pyrazol-5-yl)-N-(3,4-trans-4-(3-fluorocyclopentane)piperidin-3-yl)pyrimidine-2-formamide]	3.11	85	0.68
CC1CCC([C@H]2CCNC[C@@H]2NC(=O)c2ncc(-c3c(Cl)cnn3C)c(Cl)n2)CC1 (stereo partly drawn) [Compound 55, 4-chloro-5-(4-chloro-1-methyl-1H-pyrazol-5-yl)-N-(3,4-trans-4-(4-methylcyclohexane)piperidin-3-yl)pyrimidine-2-formamide]	10.8	48	5.79
Cc1cc(C(=O)N[C@H]2CNCC[C@@H]2C2CCCC(Cl)C2)ncc1-c1c(Cl)cnn1C (stereo partly drawn) [Compound 56, 5-(4-chloro-1-methyl-1H-pyrazol-5-yl)-N-(3,4-trans-4-(3-chlorocyclohexane)piperidin-3-yl)-4-methylpyridinyl-2-formamide]	4.51	362	9.53
Cc1cnn(C)c1-c1cnc(C(=O)N[C@H]2CNCC[C@@H]2c2ccc(F)c(F)c2)cc1F [Compound 61, 4-fluoro-5-(1,4-dimethyl-1H-pyrazol-5-yl)-N-((3R,4R)-4-(3,4-difluorophenyl)piperidin-3-yl)pyridinyl-2-formamide]	3.85	188	8.44
Cc1cnn(C)c1-c1cnc(C(=O)N[C@@H]2CNCC[C@H]2c2ccc(F)c(F)c2)cc1F [Compound 62, 4-fluoro-5-(1,4-dimethyl-1H-pyrazol-5-yl)-N-((3S,4S)-4-(3,4-difluorophenyl)piperidin-3-yl)pyridinyl-2-formamide]	31.1	626	6.67
CCc1cc(C(=O)N[C@@H]2CNCC[C@H]2c2ccc(C(F)(F)F)cc2)cnc1-c1c(Br)cnn1C [Compound 64, 5-ethyl-6-(4-bromo-1-methyl-1H-pyrazol-5-yl)-N-((3S,4S)-4-(4-trifluoromethylphenyl)piperidin-3-yl)pyridinyl-3-formamide]	22.6	256	1.62
Cn1ncc(Br)c1-c1ccc(C(=O)N[C@@H]2CNCC[C@H]2c2ccc(Cl)cc2)cc1 [Compound 72, 4-(4-bromo-1-methyl-1H-pyrazol-5-yl)-N-((3S,4S)-4-(4-chlorophenyl)piperidin-3-yl)benzamide]	0.92	6	1.34
Cn1ncc(Cl)c1-c1ccc(C(=O)N[C@@H]2CNCC[C@H]2c2cccc(F)c2)cc1 [Compound 73, 4-(4-chloro-1-methyl-1H-pyrazol-5-yl)-N-((3S,4S)-4-(3-fluorophenyl)piperidin-3-yl)benzamide]	1.21	7	2.45
Cc1cc(C(=O)N[C@@H]2CNCC[C@H]2c2ccc(Cl)c(C(F)(F)F)c2)ccc1-c1c(Cl)cnn1C [Compound 74, 4-(4-chloro-1-methyl-1H-pyrazol-5-yl)-N-((3S,4S)-4-(4-chloro-3-(trifluoromethyl)phenyl)piperidin-3-yl)-3-methylbenzamide]	0.42	14	1.3

More lines, now with the values ahead:

IC50 [1] [µM]	IC50 (Akt1) [nM]	IC50 [2] [µM]	SMILES
0.99	13	2.19	CCc1cnn(C)c1-c1cc(F)c(C(=O)N[C@@H]2CNCC[C@H]2c2ccc(Cl)c(C(F)(F)F)c2)c(F)c1 [Compound 75, N-((3S,4S)-4-(4-chloro-3-(trifluoromethyl)phenyl)piperidin-3-yl)-4-(4-ethyl-1-methyl-1H-pyrazol-5-yl)-2,6-difluorobenzamide]
1.56	21	2.54	Cn1ncc(Cl)c1-c1ccc(C(=O)N[C@@H]2CNCC[C@H]2c2ccc(Cl)cc2)cc1C#N [Compound 76, 4-(4-chloro-1-methyl-1H-pyrazol-5-yl)-N-((3S,4S)-4-(4-chlorophenyl)piperidin-3-yl)-3-cyanobenzamide]
2.81	18	3.68	Cn1nccc1-c1ccc(C(=O)N[C@@H]2CNCC[C@H]2c2ccc(F)c(F)c2)cc1 [Compound 77, N-((3S,4S)-4-(3,4-difluorophenyl)piperidin-3-yl)-4-(1-methyl-1H-pyrazol-5-yl)benzamide]
2.03	6	0.76	Cn1ncc(Cl)c1-c1ccc(C(=O)N[C@@H]2CNCC[C@H]2c2ccc(F)c(F)c2)cc1Cl [Compound 78, 3-chloro-4-(4-chloro-1-methyl-1H-pyrazol-5-yl)-N-((3S,4S)-4-(3,4-difluorophenyl)piperidin-3-yl)benzamide]
4.08	19	3.77	Cn1ncc(Cl)c1-c1ccc(C(=O)N[C@@H]2CNCC[C@H]2c2cccc(F)c2)cc1N [Compound 79, 3-amido-4-(4-chloro-1-methyl-1H-pyrazol-5-yl)-N-((3S,4S)-4-(3-fluorophenyl)piperidin-3-yl)benzamide]
2.51	1	0.94	Cn1ncc(Cl)c1-c1ccc(C(=O)N[C@@H]2CNCC[C@H]2c2ccc(Cl)cc2)c(C(F)(F)F)c1 [Compound 80, 4-(4-chloro-1-methyl-1H-pyrazol-5-yl)-N-((3S,4S)-4-(4-chlorophenyl)piperidin-3-yl)-2-(trifluoromethyl)benzamide]
1.1	18	3.57	Cn1ncc(Br)c1-c1ccc(C(=O)N[C@@H]2CNCC[C@H]2c2cc(F)c(F)c(F)c2)cc1 [Compound 81, 4-(4-bromo-1-methyl-1H-pyrazol-5-yl)-N-((3S,4S)-4-(3,4,5-trifluorophenyl)piperidin-3-yl)benzamide]
1.56	16	1.15	Cn1ncc(Cl)c1-c1ccc(C(=O)N[C@@H]2CNCC[C@H]2c2ccc(F)c(F)c2)cc1F [Compound 82, 4-(4-chloro-1-methyl-1H-pyrazol-5-yl)-N-((3S,4S)-4-(3,4-difluorophenyl)piperidin-3-yl)-3-fluorobenzamide]
4.09	10	1.32	COc1cc(C(=O)N[C@@H]2CNCC[C@H]2c2cccc(F)c2)ccc1-c1c(Cl)cnn1C [Compound 83, 4-(4-chloro-1-methyl-1H-pyrazol-5-yl)-N-((3S,4S)-4-(3-fluorophenyl)piperidin-3-yl)-3-methoxybenzamide]
2.1	9	4.44	Cn1ncc(Cl)c1-c1ccc(C(=O)N[C@@H]2CNCC[C@H]2c2ccc(Cl)c(C(F)(F)F)c2)c(F)c1 [Compound 84, 4-(4-chloro-1-methyl-1H-pyrazol-5-yl)-N-((3S,4S)-4-(4-chloro-3-(trifluoromethyl)phenyl)piperidin-3-yl)-2-fluorobenzamide]
5.56	21	3.07	Cn1ncc(Cl)c1-c1ccc(C(=O)N[C@@H]2CNCC[C@H]2c2cccc(F)c2)cc1OC(F)(F)F [Compound 85, 4-(4-chloro-1-methyl-1H-pyrazol-5-yl)-N-((3S,4S)-4-(3-fluorophenyl)piperidin-3-yl)-3-(trifluoromethoxy)benzamide]
1.47	14	1.26	Cn1ncc(Cl)c1-c1ccc(C(=O)N[C@@H]2CNCC[C@H]2c2cccc(F)c2)cc1Cl [Compound 86, 3-chloro-4-(4-chloro-1-methyl-1H-pyrazol-5-yl)-N-((3S,4S)-4-(3-fluorophenyl)piperidin-3-yl)benzamide]
5.63	10	2.43	Cn1ncc(Cl)c1-c1ccc(C(=O)N[C@@H]2CNCC[C@H]2c2ccc(F)c(F)c2)cc1-c1ccoc1 [Compound 87, 4-(4-chloro-1-methyl-1H-pyrazol-5-yl)-N-((3S,4S)-4-(3,4-difluorophenyl)piperidin-3-yl)-3-(furan-3-yl)benzamide]
4.21	8	1.07	Cc1occc1-c1cc(-c2c(Cl)cnn2C)ccc1C(=O)N[C@@H]1CNCC[C@H]1c1cccc(F)c1 [Compound 88, 4-(4-chloro-1-methyl-1H-pyrazol-5-yl)-N-((3S,4S)-4-(3-fluorophenyl)piperidin-3-yl)-2-(2-methylfuran-3-yl)benzamide]
